Source: patent publication US5219884A, “Immunosuppressant” (Taito Co., Ltd., priority 1990, dated 1993)
Like-named read-outs stand apart in the source and are kept apart here.

What was measured:
K562 = test: in vitro; format: cell-based, human
Protocol: (§1) Cytotoxicity to human tumor cell lines was examined as follows:
(§2) Cells of human cell lines, K562, MOLT4, U937, HL60, KATOIII, KB, PC-6, PC-14 and CCRF-CEM were separately suspended to the concentration of 2×10^5 cells/ml in the RPMI1640 culture medium supplemented with 20% FCS. Fifty μl of this suspension was added to each well of 96-well microculture plates to which 50 μl of the test solution had been added. After culturing at 37° C. in an atmosphere of 5% carbon dioxide for 72 hours, the absorbancy at 550 nm was measured in the same way as the colorimetry using MTT in Experimental Example 1, and the percent suppression was calculated in the same manner as in Experimental Example 14, which was used as the index of cytotoxicity.

in vitro = format: cell-based, human; conditions: human, read-out: Suppression
Protocol: as §1, §2

HL60 = test: in vitro; format: cell-based, human
Protocol: as §1, §2

KB = test: in vitro; format: cell-based, human
Protocol: as §1, §2

U937 = test: in vitro; format: cell-based, human
Protocol: as §1, §2

PC-14 = test: in vitro; format: cell-based, human
Protocol: as §1, §2

CCRF-CEM = test: in vitro; format: cell-based, human
Protocol: as §1, §2

[1] = cytotoxicity to tumor cell line MOLT4; format: cell-based, human; conditions: human, molt4 cells, read-out: Suppression
Protocol: as §1, §2

MOLT4 = test: cytotoxicity to tumor cell line MOLT4; format: cell-based, human
Protocol: as §1, §2

[2] = test system: mouse allogenic mixed lymphocyte reaction (BALB/c responder, C57BL/6 stimulator spleen cells); test: mouse allogenic mixed lymphocyte reaction (MLR), blastogenesis by 3H-thymidine uptake; format: cell-based
Protocol: The immunosuppressive activity of the compounds (I) and their lactones was assayed by using mouse allogenic mixed lymphocyte reaction (hereinafter sometimes abbreviated as MLR). Mouse allogenic MLR was carried out by mixed culture of the BALB/c mouse (H-2^d) spleen cells as the responder cells and the mitomycin C-treated C57BL/6 (H-2^b) spleen cells as the stimulator cells in equal amounts.
The responder cells were prepared as follows: The spleen was resected from 5- to 6-week-old male BALB/c mice, and single cell suspension of spleen cells was prepared by using the RPMI1640 culture medium (containing 60 μg/ml of kanamycin sulfate, 2 mM of L-glutamine, 10 mM of N-2-hydroxyethylpiperazine-N'-2-ethanesulfonate (HEPES) and 0.1% sodium hydrogencarbonate) to which heat-inactivated fetal calf serum (hereinaftersometimes abbreviated as FCS) had been added to 5%. After hemolytic treatment, the cell suspension was adjusted to a concentration of 10^7 cells/ml by using the RPMI1640 culture medium supplemented with 10^-4 M 2-mercaptoethanol and 20% FCS, and was used as the responder cell suspension.
The stimulator cells were prepared as follows:
The spleen was resected from 5- to 6-week-old male C57BL/6 mice, and single cell suspension of spleen cells was prepared by using the RPMI1640 culture medium. After hemolytic treatment, the cells were treated with 40 μg/ml of mitomycin C at 37° C. for 60 minutes. After washing three times, the concentration of the cell suspension was adjusted to 10^7 cells/ ml by using the RPMI1640 culture medium supplemented with 10^-4 M 2-mercaptoethanol and 20% FCS, and was used as the stimulator cell suspension.
Fifty μl of the responder cell suspension, 50μl of the stimulator cell suspension prepared by the above method, and 100 μl of the test substance were placed in 96-well microculture plates, and were cultured at 37° C. in an atmosphere of 5% carbon dioxide for 4 days.
The blastogenesis of lymphocytes was assayed by a method of ^3 H-thymidine uptake as an index. That is, after termination of the culture, 0.5 μCi/well of ^3 H-thymidine was added and cultured for 4 hours. Cells were harvested by a cell-harvester, and the radioactivity incorporated into the cells was determined by a liquid scintillation counter to obtain the index of blastogenesis of lymphocytes in the mouse allogenic MLR. The suppression of the mouse allogenic MLR was evaluated by calculating the percent suppression by the following formula. [formula]
The test substance was dissolved in methanol or suspended in a mixture of methanol and acetic acid, and then diluted with the RPMI1640 culture medium.

[3] = cytotoxicity to mouse L929 cells; format: cell-based; conditions: mouse, l929 cells, read-out: Suppression
Protocol: (§3) Cytotoxicity to mouse L929 cells was assayed as follows:
(§4) L929 cells were suspended to the concentration of 1.5×10^5 cells/ml in the F12 culture medium supplemented with 10% FCS. One hundred μl of the suspension was added to each well of 96-well microculture plates, and cultured at 37° C. in an atmosphere of 5% carbon dioxide for 24 hours, to which 100 μl of the test solution was added and cultured for further 48 hours. After the culture, 100 μl of the supernatant was removed and the absorbancy at 550 nm was measured in the same way as the colormetry using MTT in Experimental Example 1. The percent suppression was calculated by the following formula used as the index of cytotoxicity. [formula]

mouse L929 cells = test: cytotoxicity to mouse L929 cells; format: cell-based; conditions: 550 nm
Protocol: as §3, §4

`CCCCCCC(=O)CCCCCCCCCC1OC(=O)C(N)(CO)C1O` (stereo not drawn) [Example 7] gave an Absorbancy (K562; 0.1 μg/ml) of 0.387, an Absorbancy (K562; 1.0 μg/ml) of 0.332 and an Absorbancy (K562; 10.0 μg/ml) of 0.302. It also gave a cytotoxicity at 72 h (in vitro; ccrf-cem cells, 0.1 μg/ml) of 1.6%, a cytotoxicity at 72 h (in vitro; ccrf-cem cells, 1.0 μg/ml) of 5.6% and a cytotoxicity at 72 h (in vitro; ccrf-cem cells, 10.0 μg/ml) of 15.2%. The cytotoxicity at 72 h (in vitro; hl60 cells, 0.1 μg/ml) was 17.2%, the cytotoxicity at 72 h (in vitro; hl60 cells, 1.0 μg/ml) was 18.2% and the cytotoxicity at 72 h (in vitro; hl60 cells, 10.0 μg/ml) was 18%. For the same compound, the cytotoxicity at 72 h (in vitro; k562 cells, 0.1 μg/ml) was 0%, the cytotoxicity at 72 h (in vitro; k562 cells, 1.0 μg/ml) was 13.8% and the cytotoxicity at 72 h (in vitro; k562 cells, 10.0 μg/ml) was 21.6%. It also gave a cytotoxicity at 72 h (in vitro; kb cells, 0.1 μg/ml) of 0.5%, a cytotoxicity at 72 h (in vitro; kb cells, 1.0 μg/ml) of 4.8% and a cytotoxicity at 72 h (in vitro; kb cells, 10.0 μg/ml) of 32.5%. For the same compound, the cytotoxicity at 72 h (in vitro; pc-14 cells, 0.1 μg/ml) was 5.9%, the cytotoxicity at 72 h (in vitro; pc-14 cells, 1.0 μg/ml) was 10.5% and the cytotoxicity at 72 h (in vitro; pc-14 cells, 10.0 μg/ml) was 33.5%. The cytotoxicity at 72 h (in vitro; u937 cells, 0.1 μg/ml) was 0%, the cytotoxicity at 72 h (in vitro; u937 cells, 1.0 μg/ml) was 0% and the cytotoxicity at 72 h (in vitro; u937 cells, 10.0 μg/ml) was 5.5%. For the same compound, the Absorbancy (HL60; 0.1 μg/ml) was 0.432, the Absorbancy (HL60; 1.0 μg/ml) was 0.427 and the Absorbancy (HL60; 10.0 μg/ml) was 0.428. It also gave an Absorbancy (KB; 0.1 μg/ml) of 0.726, an Absorbancy (KB; 1.0 μg/ml) of 0.695 and an Absorbancy (KB; 10.0 μg/ml) of 0.493. The Absorbancy (U937; 0.1 μg/ml) was 0.588, the Absorbancy (U937; 1.0 μg/ml) was 0.593 and the Absorbancy (U937; 10.0 μg/ml) was 0.551. The Absorbancy (PC-14; 0.1 μg/ml) was 0.446, the Absorbancy (PC-14; 1.0 μg/ml) was 0.424 and the Absorbancy (PC-14; 10.0 μg/ml) was 0.315. For the same compound, the Absorbancy (CCRF-CEM; 0.1 μg/ml) was 0.681, the Absorbancy (CCRF-CEM; 1.0 μg/ml) was 0.653 and the Absorbancy (CCRF-CEM; 10.0 μg/ml) was 0.587. The cytotoxicity at 72 h ([1]; 0.1 μg/ml) was 26.2%, the cytotoxicity at 72 h ([1]; 1.0 μg/ml) was 15.2% and the cytotoxicity at 72 h ([1]; 10.0 μg/ml) was 31%. The Absorbancy (MOLT4; 0.1 μg/ml) was 0.107, the Absorbancy (MOLT4; 1.0 μg/ml) was 0.123 and the Absorbancy (MOLT4; 10.0 μg/ml) was 0.100. For the same compound, the 3H-thymidine uptake ([2]; 0.001 μg/ml) was 24446 cpm, the 3H-thymidine uptake ([2]; 0.01 μg/ml) was 34378 cpm and the 3H-thymidine uptake ([2]; 0.1 μg/ml) was 3546 cpm. For the same compound, the inhibition at 0.001 µg/mL ([2]; Mus musculus, Lymphocyte, 0.001 μg/ml, read-out: Suppression) was 13.4%, the inhibition at 0.01 µg/mL ([2]; Mus musculus, Lymphocyte, 0.01 μg/ml, read-out: Suppression) was 0% and the inhibition at 0.1 µg/mL ([2]; Mus musculus, Lymphocyte, 0.1 μg/ml, read-out: Suppression) was 100%. For the same compound, the cytotoxicity at 48 h ([3]; 0.1 μg/ml) was 0%, the cytotoxicity at 48 h ([3]; 1 μg/ml) was 0% and the cytotoxicity at 48 h ([3]; 10 μg/ml) was 0%. The Absorbancy (mouse L929 cells; 0.1 μg/ml) was 0.799, the Absorbancy (mouse L929 cells; 1 μg/ml) was 0.811 and the Absorbancy (mouse L929 cells; 10 μg/ml) was 0.696.
